According to US8362047B1, “Anti-cancer agents based on 4-(hetero)Ary1-1,2,5-oxadiazol-3-yl Amino derivatives and a method of making” (U.S. Department of Energy, priority 2010, dated 2013):

System: DU-145 cells
Experiment: Cell proliferation assay (Alamar-Blue) in DU-145 cells
Type: cell-based
Conditions: DU-145 human prostate carcinoma cells, 3 days incubation, Alamar-Blue fluorescence
Description: Protocol for Cell Proliferation Assay:
This homogeneous assay involves simply adding a single reagent, the Alamar-Blue to the cell culture and measuring the fluorescence intensity (excitation wavelength=530 nm, emission wavelength=590 nm) after an incubation step. The Alamar-Blue reagent utilizes the redox dye resazurin, which is not fluorescent, but upon reduction by metabolically active cells is converted into a highly fluorescent product (resorufin). A decrease in fluorescence in the presence of a test compound indicates reduced proliferation. This change in signal is proportional to the number of viable cells and used as a measure of relative cytotoxicity. Therefore, the fluorescence intensity observed in this assay is a true measure of the viable proliferative cells.
• 2 mM stock of Paclitaxel in DMSO. • DMSO—(dimethylsulfoxide) (Panreac, Cat. number 141954.1611) • Resazurin sodium salt (Sigma, R-7071). 50 mM stock in DMSO. Equipment • Biomek FX Laboratory Automated Workstation (Beckman Coulter Inc., Fullerton, Calif.) • CO2 incubator (VWR Science, USA) • Bright line Hemacytometer (Z359629, Sigma, Ill., USA) Materials • 384-deep well plates (Greiner, No 781270) • 384-well optical bottom tissue culture plates (Greiner, No. 82051-282) Propagation CONDITIONS: 37° C., air 95%; carbon dioxide (CO2) 5%, humidified atmosphere. SUBCULTURING: • Cells were grown in 175 cm^2 flasks to 90-100% of confluency. • Culture media (RPMI-1640 (Paneco, C310)+10% FBS (fetal bovine serum)) was aspirated and cell layer was briefly rinsed with 0.53 mM EDTA solution to remove all traces of serum. • 2 ml of 0.2% trypsin/0.53 mM EDTA (ethylenediaminetetraacetic acid) solution was added to cells. • Flasks were returned to incubator for 5 rain to allow cells detachment • Add 6.0 ml of complete growth medium. • Single cell suspension was created by gently pipetting. • Cells are counted using a Hematocytometer and suspension with desirable cell concentration is prepared.
To test proliferation inhibition DU-145 cells were plated in 384-well plate at the density 4000 cells/well. Next day 4 mM solutions of compounds in DMSO were diluted 100 times in medium and added to cells to final concentration 20 uM (40 ul of cells+40 ul of compounds). Taxol at final concentration 1 uM was used as positive control. Cells were incubated with compounds for 3 days. After that Alamar-Blue was added to cells to a final concentration of 50 uM. After incubation for 4-6 hours at 37° C., fluorescence in plate was read using fluorescence plate reader Wallac 1420 (530 nm excitation filter, 590 nm emission filter). Proliferation inhibition was calculated using formula: % INH=100*((Fnegative−compound signal)/(Fnegative−Fpositive)), • Fnegative—DMSO was added to cells (viable cells) • Fpositive—taxol (1 uM) was added to cells (number of cells at the first day of incubation)

Row | Compound | IC50 (72 h) | IC50
1 | CCOc1ccccc1C(=O)Nc1nonc1-c1ccc(OC)cc1 [Example 5, 2-Ethoxy-N^1-[4-(4-methoxyphenyl)-1,2,5-oxadiazol-3-yl]benzamide] | 980 nM | –
2 | CCOc1ccc(-c2nonc2NC(=O)c2ccccc2OCC)cc1 [Example 7, 2-Ethoxy-N^1-[4-(4-ethoxyphenyl)-1,2,5-oxadiazol-3-yl]benzamide] | 120 nM | –
3 | C=CCn1c(-c2nonc2NC(=O)c2ccccc2Cl)nc2ccccc21 [Example 3, 2-Chloro-N^1-[4-(1-allyl-1H-1,3-benzimidazol-2-yl)-1,2,5-oxadiazol-3-yl]benzamide] | 890 nM | –
4 | CCCOc1ccccc1C(=O)Nc1nonc1-c1ccc(OC)cc1 [Example 6, 2-Propoxy-N^1-[4-(4-methoxyphenyl)-1,2,5-oxadiazol-3-yl]benzamide] | 850 nM | –
5 | CCOC(=O)Cn1c(-c2nonc2NC(=O)c2ccccc2F)nc2ccccc21 [Example 4, Ethyl 2-(2-4-[(2-fluorobenzoyl)amino]-1,2,5-oxadiazol-3-yl-1H-1,3-benzimidazol-1-yl)acetate] | – | 320 nM
6 | CCCCOc1ccccc1C(=O)Nc1nonc1-c1ccc(OCC)cc1 [Example 9, 2-Butoxy-N^1-[4-(4-ethoxyphenyl)-1,2,5-oxadiazol-3-yl]benzamide] | 850 nM | –
7 | CCCOc1ccccc1C(=O)Nc1nonc1-c1ccc(OCC)cc1 [Example 8, 2-Propoxy-N^1-[4-(4-ethoxyphenyl)-1,2,5-oxadiazol-3-yl]benzamide] | 340 nM | –
8 | CCCCn1c(-c2nonc2NC(=O)c2ccccc2Cl)nc2ccccc21 [Example 1, 2-Chloro-N^1-[4-(1-butyl-1H-1,3-benzimidazol-2-yl)-1,2,5-oxadiazol-3-yl]benzamide] | 290 nM | –

Results, then the molecule that gave them:

Row | IC50 (72 h) | IC50 | Compound
9 | 950 nM | – | CCOc1ccc(-c2nonc2NC(=O)c2oc3ccc(Cl)cc3c2C)cc1 [Example 12, 5-chloro-N^2-[4-(4-ethoxyphenyl)-1,2,5-oxadiazol-3-yl]-3-methyl-1-benzofuran-2-carboxamide]
10 | 930 nM | – | CCCOc1ccccc1C(=O)Nc1nonc1-c1ccc(OCC)c(C)c1 [Example 11, 2-Propoxy-N^1-[4-(4-ethoxy-3-methylphenyl)-1,2,5-oxadiazol-3-yl]benzamide]
11 | 280 nM | – | CC(C)Cn1c(-c2nonc2NC(=O)c2ccccc2Cl)nc2ccccc21 [Example 2, 2-Chloro-N^1-[4-(1-isobutyl-1H-1,3-benzimidazol-2-yl)-1,2,5-oxadiazol-3-yl]benzamide]
12 | 860 nM | – | CCOc1ccc(-c2nonc2NC(=O)c2ccccc2OCC)cc1C [Example 10, 2-Ethoxy-N^1-[4-(4-ethoxy-3-methylphenyl)-1,2,5-oxadiazol-3-yl]benzamide]
